Source: patent US7851492B2, “ERG channel openers for the treatment of cardiac arrhythmias” (Neurosearch A/S, priority 2003, dated 2010)

Key:
[1] = target: T1, HERG1 channel (Homo sapiens, UniProt Q12809); test: HERG1 current by 2-electrode voltage clamp in Xenopus laevis oocytes transiently expressing HERG1 channels; assay type: cell-based
T1 construct: expressed in transfected cells; host or cells: Xenopus laevis oocytes (transient expression, vector pXOOM)
Method: The HERG1 channel is expressed in HEK293 cells. The gene encoding the HERG1 channel was cloned as described by Warmke & Ganetzky, Proc. Natl. Acad. Sci. USA 1994 91 3438-3442.
(§1) To ensure functional expression in HEK293 cells, the HERG1 gene was sub-cloned in the shuttle-vector pXOOM as described by Jespersen et al.; Biotechniques 2002 32 536-540.
The electrical current through the HERG1 channel is measured using 2-electrode voltage clamp technology. HERG1 current is activated by a step protocol.
In brief, this protocol goes from a resting membrane potential of −80 mV (lasting 3 seconds) to a 1 second depolarisation step at +10 mV, followed by a repolarisation step at −60 mV. The protocol is repeated up to 500 times.
Xenopus laevis oocytes transiently expressing HERG1 channels where challenged by a voltage protocol from −80 mV to +10 mV to −60 mV. This protocol was repeated every 7th second until a stable current level was obtained.

[2] = target: T1, HERG1 channel; test: HERG1 current by patch clamp with simulated cardiac action potential in HEK293 cells stably expressing HERG1 channels; assay type: cell-based
Method: In this example the HERG1 channel opening activity of a diphenyl urea derivative for use according to the invention, 1-(3-Trifluoromethyl-phenyl)-3-(2-hydroxy-5-chlorophenyl)-urea (Compound A), is determined using mammalian HEK293 cells stably expressing HERG1 channels.
The HERG1 channel is expressed in HEK293 cells. The gene encoding the HERG1 channel was cloned as described by Warmke & Ganetzky; Proc. Natl. Acad. Sci. USA 1994 91 3438-3442.
as §1
Mammalian expression is obtained by stable transfection of the gene construct in HEK293 cells.
The electrical current through the HERG1 channel is measured using patch clamp technology. HERG1 current is activated by simulated cardiac action potentials.
In brief, this protocol goes from a resting membrane potential of −90 mV to a short initial depolarisation step to +30 mV, followed by a ramp ending at 0 mV. This plateau phase is ended by a repolarisation, going from −15 mV to −90 mV in 70 ms, back to the resting membrane potential, as also shown in the voltage protocol in FIG. 1.
Having reached a stable current level, Compound A was added.

[3] = test system: awake guinea pigs; test: Awake guinea-pig telemetry model: QT intervals in electrocardiograms; assay type: in vivo; conditions: 50 mg/kg IV
Method: Compounds were dosed IV, and ECG's and heart rate were measured. QT intervals were corrected (QTc) for any change in heart rate.

[4] = test system: native cardiac myocytes; test: Modulation of action potentials in native cardiac myocytes (patch clamp, current clamp mode); assay type: cell-based, guinea pig
Method: In this example the activity on native cardiac myocytes from guinea pigs of a compound representative of the invention, 1,3-Bis-(2-hydroxy-5-trifluoromethyl-phenyl)-urea (Compound C), obtained as described in WO 2002/064128, is determined.
The membrane potential of native cardiomyocytes was determined using the patch clamp technique in current clamp mode. The membrane potential was adjusted to approximately −80 mV before start of experiments. Cells were challenged by 20 repetitive rounds of current applications. A single round of application was as follows: Action potentials were evoked by applying a single current pulse of 1 nA lasting from 5-15 ms. The single pulse was followed by 30 repetitive pulses lasting 1-5 ms and with a current amplitude of 100-700 pA. The repetitive pulses were applied at the end of the evoked action potential. These experiments were conducted in the presence or absence of Compound C.
Native cardiomyocytes responded to the described voltage protocol by eliciting an actionpotential.

[5] = native guinea pig cardiomyocytes, current clamp, Example 3

T1 sequence (Q12809 whole entry): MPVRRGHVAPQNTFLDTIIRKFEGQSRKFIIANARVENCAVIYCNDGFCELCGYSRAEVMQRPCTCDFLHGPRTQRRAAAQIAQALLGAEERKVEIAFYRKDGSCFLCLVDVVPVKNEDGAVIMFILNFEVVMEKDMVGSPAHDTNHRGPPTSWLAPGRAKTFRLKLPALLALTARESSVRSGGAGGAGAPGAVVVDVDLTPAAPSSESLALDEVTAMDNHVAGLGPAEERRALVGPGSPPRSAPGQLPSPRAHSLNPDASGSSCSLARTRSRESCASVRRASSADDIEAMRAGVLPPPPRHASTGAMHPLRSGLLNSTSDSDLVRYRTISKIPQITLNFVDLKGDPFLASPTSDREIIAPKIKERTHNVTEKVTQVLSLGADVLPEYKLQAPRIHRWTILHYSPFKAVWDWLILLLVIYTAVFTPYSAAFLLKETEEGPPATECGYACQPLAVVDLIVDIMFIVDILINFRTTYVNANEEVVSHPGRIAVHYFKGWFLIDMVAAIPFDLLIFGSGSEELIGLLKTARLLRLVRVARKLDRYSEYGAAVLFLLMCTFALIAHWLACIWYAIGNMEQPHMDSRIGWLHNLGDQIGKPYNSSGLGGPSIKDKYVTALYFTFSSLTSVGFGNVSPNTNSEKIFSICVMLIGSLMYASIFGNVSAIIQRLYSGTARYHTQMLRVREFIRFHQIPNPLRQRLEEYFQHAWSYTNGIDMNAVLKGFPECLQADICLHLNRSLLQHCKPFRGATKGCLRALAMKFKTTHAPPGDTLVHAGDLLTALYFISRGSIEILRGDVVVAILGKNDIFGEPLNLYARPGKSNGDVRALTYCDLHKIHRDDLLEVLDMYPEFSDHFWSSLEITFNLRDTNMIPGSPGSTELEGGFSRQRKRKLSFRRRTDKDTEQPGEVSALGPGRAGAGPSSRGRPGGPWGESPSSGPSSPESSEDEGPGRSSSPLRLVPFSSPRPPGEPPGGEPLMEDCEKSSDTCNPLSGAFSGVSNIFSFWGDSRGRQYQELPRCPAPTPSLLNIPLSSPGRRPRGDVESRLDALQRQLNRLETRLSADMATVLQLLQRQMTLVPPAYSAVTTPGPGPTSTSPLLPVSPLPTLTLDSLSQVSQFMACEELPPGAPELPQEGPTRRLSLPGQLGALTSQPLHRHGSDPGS

| melting point | SMILES | also measured |
| --- | --- | --- |
| 158 to 159 °C | O=C(Nc1cc(C(F)(F)F)ccc1O)Nc1ccccc1C(F)(F)F [Compound 1, 1-(2-Hydroxy-5-trifluoromethyl-phenyl)-3-(2-trifluoromethyl-phenyl)-urea] |  |
| 224 to 225 °C | O=C(Nc1ncccn1)Nc1ccccc1C(F)(F)F [Compound 2, 1-Pyrimidin-2-yl-3-(2-trifluoromethyl-phenyl)-urea] |  |
| 183 to 184 °C | O=C(Nc1cc(Cl)ccc1O)Nc1ccccc1C(F)(F)F [Compound 3, 1-(5-Chloro-2-hydroxy-phenyl)-3-(2-trifluoromethyl-phenyl)-urea] |  |
| 223 to 224 °C | COc1ccc(NC(=O)Nc2cccc(C(F)(F)F)c2)c(O)n1 [Compound 4, 1-(2-Hydroxy-6-methoxy-pyridin-3-yl)-3-(3-trifluoromethyl-phenyl)-urea] |  |
| > 300 °C | O=C(Nc1cccc(C(F)(F)F)c1)Nc1c(C(=O)O)[nH]c(=O)[nH]c1=O [Compound 7, 2,6-Dioxo-5-[3-(3-trifluoromethyl-phenyl)-ureido]-1,2,3,6-tetrahydro-pyrimidine-4-carboxylic acid] |  |
| > 300 °C | O=C(Nc1cccc(C(F)(F)F)c1)Nc1nccnc1C(=O)O [Compound 8, 3-[3-(3-Trifluoromethyl-phenyl)-ureido]-pyrazine-2-carboxylic acid] |  |
| 195 to 197 °C | O=C(Nc1ccccc1F)Nc1cc(Cl)ccc1C(=O)O [Compound 9, 4-Chloro-2-[3-(2-fluoro-phenyl)-ureido]-benzoic acid] |  |
| 184.5 to 189.3 °C | CN(C)C(=O)CCc1ccc(NC(=O)Nc2ccc(Cl)c(C(F)(F)F)c2)c(-c2nnn[nH]2)c1 [Compound 11, 3-[4-[3-(4-Chloro-3-trifluoromethyl-phenyl)-ureido]-3-(1H-tetrazol-5-yl)-phenyl]-N,N-dimethyl-propionamide] |  |
| 234 to 236 °C | O=C(Nc1cc(Cl)cc(Cl)c1)Nc1ccc(Cl)cc1-c1nnn[nH]1 [Compound 12, 1-[4-Chloro-2-(1H-tetrazol-5-yl)-phenyl]-3-(3,5-dichloro-phenyl)-urea] |  |
| 156 °C (dec.) | O=C(Nc1ccc(-c2ccccc2)cc1-c1nnn[nH]1)c1cc(C(F)(F)F)cc(C(F)(F)F)c1 [Compound 15, N-[3-(1H-Tetrazol-5-yl)-biphenyl-4-yl]-3,5-bis-trifluoromethyl-benzamide] | HERG1 current ([1]; 1-30 μM): increase; repolarisation current recorded at −60 mV ([1]; voltage protocol −80 mV to +10 mV to −60 mV (FIG. 2)): marked increase |
| > 219 °C (dec.) | O=C(Nc1ccc(Nc2ccc(Cl)cc2)c(Cl)c1)c1cc([N+](=O)[O-])ccc1O [Compound 17, N-[3-Chloro-4-(4-chloro-phenylamino)-phenyl]-2-hydroxy-5-nitro-benzamide] |  |
|  | O=C(Nc1cccc(C(F)(F)F)c1)Nc1cc(Cl)ccc1O [Compound A, 1-(3-Trifluoromethyl-phenyl)-3-(2-hydroxy-5-chlorophenyl)-urea] | repolarisation current ([2]; HEK293 cells stably expressing HERG1, simulated cardiac action potential, 10 μM (FIG. 1)): marked increase; current during the last phase of the cardiac simulating voltage protocol (repolarisation current) ([2]; HEK293 cells, 3-30 μM): increase; HERG1 current in the first 200 ms of the resting phase ([2]; HEK293 cells, simulated cardiac action potential): increased |
|  | O=C(Nc1cccc(C(F)(F)F)c1)Nc1ccc(Br)cc1-c1nnn[nH]1 [Compound B, 1-(3-Trifluoromethyl-phenyl)-3-[2-(1H-tetrazol-5-yl)-4-bromo-phenyl] urea] | reduction of the length of the corrected QT interval (QTc) compared to controls [3]: 23% |
|  | O=C(Nc1cc(C(F)(F)F)ccc1O)Nc1cc(C(F)(F)F)ccc1O [Compound C, 1,3-Bis-(2-hydroxy-5-trifluoromethyl-phenyl)-urea] | cardiac action potential duration [4, 5]: shorting of the cardiac action potential; membrane potential in the presence of the 30 repetitive pulses [4, 5]: stable membrane potential; rounds of current applications in which stabilisation was observed ([4]; of 20 rounds of current applications): 20 rounds |
